Some test systems named below: SK-MEL-2 melanoma; A549 NSCLC; HS 578T breast; DU-145 prostate; SF-268 CNS; RPMI-8226 leukemia; SK-MEL-28 melanoma; HOP-62 NSCLC; HL-60(TB) leukemia; NCI-H226 lung.
Assay in all cases: growth of human tumour cells (NCI), 48 h

SMILES strings stand for the structures.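 Step 1: Grow cells in 96-well plates. Step 2: Expose to compound for 48 hours at 5 concentrations. Step 3: Interpolate endpoints linearly; if unreached, use highest concentration. Here, GI50 denotes the concentration required for 50% inhibition of growth. TGI is the concentration that stops growth completely.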

Regarding `O=C(c1c(F)c(F)c(F)c(F)c1F)c1c(F)c(F)c(F)c(F)c1F`, the TGI with SK-MEL-2 melanoma is 7.02 µM; with A549 NSCLC, 15.4 µM; with HS 578T breast it was greater than 26.6 µM; in the test on DU-145 prostate, 4.64 µM; in the test with SF-268 CNS, 7.8 µM; with RPMI-8226 leukemia, 4.71 µM. Also, the TGI in the test with SK-MEL-28 melanoma is 7.92 µM; with HOP-62 NSCLC, 3.49 µM; with HL-60(TB) leukemia, greater than 100 µM; in the test on NCI-H226 lung it was 8.96 µM.
With `CCOC(=O)c1[nH]c2cc(Cl)ccc2c1[C@@H](C(=O)NC(C)(C)C)N(CC)C(=O)CCCCC#Cc1cccc2c1CN(C1CCC(=O)NC1=O)C2=O` (some centres undefined), the GI50 with SK-MEL-2 melanoma was 1.47 µM; with A549 NSCLC, 1.3 µM; in the test on HS 578T breast, less than 0.01 µM; in the test with DU-145 prostate it was 3.06 µM; with SF-268 CNS, 0.0476 µM; in the test on RPMI-8226 leukemia it was 0.185 µM. Further, the GI50 in the test on SK-MEL-28 melanoma was 2.29 µM; with HOP-62 NSCLC it was less than 0.01 µM; in the test on HL-60(TB) leukemia, less than 0.01 µM; with NCI-H226 lung, 0.0343 µM. Also, the TGI with SK-MEL-2 melanoma was 4.15 µM; in the test with A549 NSCLC it was greater than 89.4 µM; in the test with HS 578T breast, 6.66 µM; in the test with DU-145 prostate, 46.8 µM; in the test on SF-268 CNS, 28.7 µM; in the test with RPMI-8226 leukemia, 2.88 µM. Further, the TGI in the test with SK-MEL-28 melanoma was 25.5 µM; in the test on HOP-62 NSCLC it was 6.81 µM; in the test on HL-60(TB) leukemia, 0.0959 µM.
As to `CSc1ccc(C2=NN(C(C)=O)C(c3ccc(-c4cc(Cl)c(Cl)cc4Cl)o3)C2)cc1` (centres undefined), the GI50 in the test on SK-MEL-2 melanoma was 16.8 µM; with A549 NSCLC it was 17 µM; with HS 578T breast, 22.8 µM; with DU-145 prostate it was 15.5 µM; with SF-268 CNS, 16.3 µM; in the test with RPMI-8226 leukemia, 10.9 µM. Besides, the GI50 with SK-MEL-28 melanoma was 16.2 µM; in the test on HOP-62 NSCLC it was 15.8 µM; in the test with HL-60(TB) leukemia it was 12 µM; in the test with NCI-H226 lung, 13.9 µM. Also, the TGI with SK-MEL-2 melanoma stood at 35.1 µM; in the test on A549 NSCLC, 33 µM; with HS 578T breast it was 53 µM; in the test with DU-145 prostate, 29 µM; with SF-268 CNS, 32.2 µM; in the test with RPMI-8226 leukemia, 41 µM. For the same compound, the TGI with SK-MEL-28 melanoma came to 29.7 µM; with HOP-62 NSCLC, 29.4 µM; with HL-60(TB) leukemia, 30.4 µM; in the test with NCI-H226 lung, 27.3 µM.
As to `COc1cc(-n2ccnc2-c2ccc3ccccc3c2)cc(OC)c1OC`, the GI50 with SK-MEL-2 melanoma is 0.19 µM; in the test on A549 NSCLC it was 0.12 µM; in the test with HS 578T breast, 0.135 µM; in the test on DU-145 prostate it was 0.175 µM; with SF-268 CNS it was 0.182 µM; with RPMI-8226 leukemia, 0.292 µM. Moreover, the GI50 in the test on SK-MEL-28 melanoma is 0.688 µM; in the test on HOP-62 NSCLC, 0.0895 µM; in the test with HL-60(TB) leukemia, 0.0232 µM; with NCI-H226 lung it was 5.7 µM. In addition, the TGI in the test with SK-MEL-2 melanoma is 26.9 µM; in the test on A549 NSCLC, greater than 45.4 µM; in the test with HS 578T breast it was 10.5 µM; in the test on DU-145 prostate, 17.5 µM; with SF-268 CNS it was 49.8 µM; in the test with RPMI-8226 leukemia, 20.6 µM. The TGI is 38.3 µM in the test with SK-MEL-28 melanoma, 26 µM with HOP-62 NSCLC, greater than 37.6 µM with HL-60(TB) leukemia and greater than 53.7 µM in the test with NCI-H226 lung.
In the case of `NC(=O)c1cc(N2CC2)c([N+](=O)[O-])cc1[N+](=O)[O-]`, the TGI with SK-MEL-2 melanoma was greater than 20 µM; in the test on A549 NSCLC, greater than 200 µM; in the test on HS 578T breast it was greater than 200 µM; with DU-145 prostate, greater than 200 µM; in the test on SF-268 CNS, greater than 200 µM; with RPMI-8226 leukemia it was greater than 200 µM. The TGI in the test with SK-MEL-28 melanoma, in the test with HOP-62 NSCLC, in the test with HL-60(TB) leukemia and in the test on NCI-H226 lung was greater than 200 µM throughout. Also, the GI50 in the test with SF-268 CNS, with RPMI-8226 leukemia, in the test on HOP-62 NSCLC, in the test with HL-60(TB) leukemia and in the test on NCI-H226 lung was greater than 200 µM throughout.
For the compound `CCCc1nn(C)c2c(=O)[nH]c(-c3cc(S(=O)(=O)N4CCN(C)CC4)ccc3OCC)nc12`, the GI50 with SK-MEL-2 melanoma was greater than 100 µM; in the test with A549 NSCLC, greater than 100 µM; in the test on HS 578T breast, 21.6 µM; in the test with DU-145 prostate, greater than 100 µM; in the test on SF-268 CNS it was greater than 100 µM; with RPMI-8226 leukemia, greater than 100 µM. Moreover, the GI50 in the test on SK-MEL-28 melanoma, in the test with HOP-62 NSCLC, with HL-60(TB) leukemia and in the test with NCI-H226 lung was greater than 100 µM throughout. Further, the TGI in the test on SK-MEL-2 melanoma, in the test on A549 NSCLC, in the test on HS 578T breast, in the test on DU-145 prostate, in the test on SF-268 CNS and in the test on RPMI-8226 leukemia was greater than 100 µM in each case. For the same compound, the TGI in the test with SK-MEL-28 melanoma, in the test with HOP-62 NSCLC, with HL-60(TB) leukemia and in the test on NCI-H226 lung was greater than 100 µM throughout.
Regarding `CC(=O)O.CN1[CH-]N(Cc2ccc(C#N)cc2)c2ccccc21.[Ag+]`, the GI50 is greater than 100 µM in the test with SK-MEL-2 melanoma; 32.3 µM in the test on A549 NSCLC; greater than 100 µM in the test with HS 578T breast; 17.7 µM in the test with DU-145 prostate; 72 µM with SF-268 CNS; 31.3 µM in the test on RPMI-8226 leukemia. The GI50 with SK-MEL-28 melanoma is 16.7 µM; with HOP-62 NSCLC, 47.4 µM; in the test on HL-60(TB) leukemia, 20.3 µM; with NCI-H226 lung, 16.7 µM. Besides, the TGI in the test with SK-MEL-2 melanoma was greater than 100 µM; in the test on A549 NSCLC it was greater than 100 µM; in the test with HS 578T breast it was greater than 100 µM; in the test on DU-145 prostate it was 32.6 µM; in the test on SF-268 CNS, greater than 100 µM; in the test with RPMI-8226 leukemia, greater than 100 µM. The TGI was 32.1 µM in the test on SK-MEL-28 melanoma, greater than 100 µM with HOP-62 NSCLC, 45.9 µM in the test on HL-60(TB) leukemia and 50.9 µM with NCI-H226 lung.
For `COc1cc(-c2nn(-c3cccc(NC(=O)Nc4ccc(Cl)c(C(F)(F)F)c4)c3)cc2-c2ccncc2)ccc1Cl`, the GI50 with SK-MEL-2 melanoma is 1.01 µM; with A549 NSCLC, 1.02 µM; in the test with HS 578T breast, 1.32 µM; with DU-145 prostate, 1.5 µM; in the test on SF-268 CNS, 1.46 µM; with RPMI-8226 leukemia, 0.868 µM. Further, the GI50 is 1.2 µM in the test with SK-MEL-28 melanoma, 1.31 µM in the test on HOP-62 NSCLC, 1.17 µM in the test with HL-60(TB) leukemia and 1.82 µM in the test on NCI-H226 lung. Besides, the TGI in the test with SK-MEL-2 melanoma was 2.58 µM; in the test on A549 NSCLC, 16.7 µM; in the test with HS 578T breast, 18.3 µM; with DU-145 prostate, greater than 32.5 µM; in the test with SF-268 CNS, 9.14 µM; in the test on RPMI-8226 leukemia, 3.25 µM. The TGI is 5.01 µM with SK-MEL-28 melanoma, 6.49 µM in the test on HOP-62 NSCLC, greater than 32.5 µM in the test with HL-60(TB) leukemia and greater than 32.5 µM with NCI-H226 lung.

The values are drawn from PubChem BioAssay (NCI).
